{
  "source": "patent US20240391875A1",
  "about": "“ISOQUINOLINONES AND QUINOLINONES AS MODULATORS OF POLRMT” (Pretzel Therapeutics, Inc., priority 2021, published 2024)",
  "data": [
    {"molecular_target": "POLRMT (Homo sapiens, UniProt O00411)", "sequence (O00411 42-1230)": "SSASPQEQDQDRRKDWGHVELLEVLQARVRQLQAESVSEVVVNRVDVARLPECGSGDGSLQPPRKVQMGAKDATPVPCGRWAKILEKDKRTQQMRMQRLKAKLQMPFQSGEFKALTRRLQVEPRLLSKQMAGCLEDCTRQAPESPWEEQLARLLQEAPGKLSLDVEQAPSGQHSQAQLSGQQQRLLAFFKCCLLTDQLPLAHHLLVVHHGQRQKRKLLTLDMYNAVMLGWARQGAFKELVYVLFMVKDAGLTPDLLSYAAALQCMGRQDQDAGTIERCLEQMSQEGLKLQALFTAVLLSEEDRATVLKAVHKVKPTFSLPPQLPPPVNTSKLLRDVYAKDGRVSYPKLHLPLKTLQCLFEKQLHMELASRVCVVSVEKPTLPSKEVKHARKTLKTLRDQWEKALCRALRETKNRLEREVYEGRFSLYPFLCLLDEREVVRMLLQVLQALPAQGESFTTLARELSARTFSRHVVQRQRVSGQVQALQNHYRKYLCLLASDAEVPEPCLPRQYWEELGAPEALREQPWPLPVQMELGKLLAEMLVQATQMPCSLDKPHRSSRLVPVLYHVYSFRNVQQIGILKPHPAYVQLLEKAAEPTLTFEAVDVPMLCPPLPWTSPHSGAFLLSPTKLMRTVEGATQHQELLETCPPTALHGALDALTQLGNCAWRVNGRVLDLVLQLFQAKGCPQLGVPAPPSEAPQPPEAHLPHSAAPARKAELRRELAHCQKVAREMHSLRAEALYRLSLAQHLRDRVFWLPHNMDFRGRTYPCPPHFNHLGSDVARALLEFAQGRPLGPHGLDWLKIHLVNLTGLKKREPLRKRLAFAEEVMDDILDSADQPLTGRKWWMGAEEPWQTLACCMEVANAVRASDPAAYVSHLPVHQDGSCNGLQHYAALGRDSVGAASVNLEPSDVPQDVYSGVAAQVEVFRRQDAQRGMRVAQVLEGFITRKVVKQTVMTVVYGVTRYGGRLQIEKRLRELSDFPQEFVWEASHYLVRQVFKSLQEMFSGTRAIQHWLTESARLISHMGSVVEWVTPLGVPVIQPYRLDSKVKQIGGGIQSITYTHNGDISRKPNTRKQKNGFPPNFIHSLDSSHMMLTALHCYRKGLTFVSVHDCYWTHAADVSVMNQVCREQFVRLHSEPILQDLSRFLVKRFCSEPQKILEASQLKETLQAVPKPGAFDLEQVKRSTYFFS", "test": "homogeneous TR-FRET assay of mitochondrial transcription (inhibition of POLRMT)", "format": "biochemical", "details": "isoquinolinone compounds (Table 1)", "method": "(§1) The inhibitory activity of the compounds of the present invention against POLRMT were determined by assays based on Bergbrede, T., et al., “An adaptable high-throughput technology enabling the identification of specific transcription modulators,” SLAC Discov., 22, 378-386 (2017).\n(§2) The ability of some compounds of the present invention to inhibit POLRMT were determined in a homogeneous TR-FRET Assay using high-throughput screening in a 384-well plate format. This method is used to monitor the activity of mitochondrial transcription through measurement of its product, a 407 bp long RNA transcript. Detection of the product is facilitated by hybridization of two DNA-oligonucleotide probes to specific and adjacent sequences within the RNA product sequence. Upon annealing of the probes, two fluorophores are coupled directly to an acceptor nucleotide probe (ATTO647, 5′), or introduced via a coupled streptavidin with a biotinylated donor nucleotide probe (Europium cryptate) that is brought into sufficient proximity to serve as a fluorescence-donor-acceptor pair. Thus, a FRET signal at 665 nm is generated upon excitation at 340 nm.\n(§3) Proteins used as transcription factors (POLRMT: NP_005026.3, TFAM: NP_003192.1, TFB2M: NP_071761.1) are diluted from their stocks to working concentrations of 1 μM, 20 μM and 4 μM respectively, in a dilution buffer containing 20 mM Tris-HCl (pH 8.0), 200 mM NaCl, 10% (v/v) glycerol, 1 mM Dithiothreitol (DTT), 0.5 mM EDTA.\n(§4) DNA template is a pUC18 plasmid with the mitochondrial light strand promotor sequence (1-477) cloned between HindIII and BamHI sites. The DNA template is restriction linearized proximal to the promotor 3′-end (pUC-LSP).\n(§5) The reaction mixture (10 uL) containing 7.5 nM POLRMT, 15 nM of TFB2M, 30 nM of TFAM, 0.5 nM of DNA template and 500 μM nucleotide triphosphate mix (NTPs) in a reaction buffer (containing 10 mM Tris-HCl (pH 7.5), 10 mM MgCl2, 40 mM NaCl, 10 mM DTT, 0.005% (w/v) Tween-20, 160 units/ml Rnase inhibitor and 0.1 mg/mL BSA) are dispensed to compounds in microplates, using a Thermo Multidrop® dispenser, and incubated at 37° C. in a VWR INCU-Line incubator for 60 minutes after mixing. No nucleotide triphosphate mix is added to negative control samples. Microplates with compounds to be tested in the assay are prepared from 10 mM compound stocks in 100% DMSO, equal amounts of DMSO without any compound are added to positive control and negative control samples.\n(§6) During the incubation, a mix of the detection reagents is prepared in a buffer such that the enzymatic reaction is terminated due to chelating of Mg-ions and increased ionic strength, containing 50 mM Tris-HCl (pH 7.5), 700 mM NaCl, 20 mM EDTA, and 0.010% (w/v) Tween-20. Europium-streptavidin is pre-incubated with a 200-fold molar excess of a random sequence oligonucleotide to block unspecific binding of oligo, for two hours at ambient temperature in the dark. Afterwards, the blocked Europium-streptavidin is kept on ice until use.\n(§7) At the end of the enzymatic reaction time, 5 μL detection oligo mix in the detection buffer is added, and assay plates are mixed and kept at ambient temperature for one hour, protected from light. The concentration of the Acceptor nucleotide oligo (e.g., ATTO647N-5′-[…]-3′) and Donor nucleotide oligo (e.g., bio-5′-AACACATCTCT(-bio)GCCAAACCCCA-bio-3′) in each assay well is 1 nM, and 3 nM, respectively.\n(§8) After incubation with oligo mix, 5 μL of pre-blocked Europium-streptavidin reagent is dispensed to each assay well, assay plates are again mixed and kept at ambient temperature for one hour, protected from light.\n(§9) The generated signal is measured with BMG Pherastar microtiter plate reader with a TRF light unit, using excitation at 340 nm, an integration time of 200 μs, and a delay time of 100 μs, before detection at 620 nm and 665 nm. The ratio of donor- and acceptor-fluorescence is used as a measure of the generated transcript product (i.e. enzymatic activity).", "units": {"IC50": "nM"}, "values": [
      {"smiles": "C[C@@H](Oc1ccc2c(-c3ccc(F)cc3Cl)c[nH]c(=O)c2c1)C(=O)N1CCO[C@@H](C(N)=O)C1", "note": "[Example 129, (R)-4-((R)-2-((4-(2-chloro-4-fluorophenyl)-1-oxo-1,2-dihydroisoquinolin-7-yl)oxy)propanoyl)morpholine-2-carboxamide]", "IC50": 1000},
      {"smiles": "Cc1ccccc1-c1c[nH]c(=O)c2cc(NC(C)C(N)=O)ccc12", "note": "(stereo not drawn) [Example 69]", "IC50": 12000},
      {"smiles": "C[C@@H](Oc1ccc2c(-c3ccc(F)cc3Cl)c[nH]c(=O)c2c1)C(=O)N1CCC[C@H](C(=O)O)C1", "note": "[Example 62, (S)-1-((R)-2-((4-(2-chloro-4-fluorophenyl)-1-oxo-1,2-dihydroisoquinolin-7-yl)oxy)propanoyl)piperidine-3-carboxylic acid]", "IC50": 60},
      {"smiles": "Cc1ccccc1-c1c[nH]c(=O)c2cc(OC(C)C(N)=O)ccc12", "note": "(single isomer, unassigned) [Example 73]", "IC50": 400},
      {"smiles": "Cc1ccccc1-c1c[nH]c(=O)c2cc(O[C@H](C)C(=O)N3C4CCCC3CC4)ccc12", "note": "[Example 86, 7-(((2R)-1-(8-azabicyclo[3.2.1]octan-8-yl)-1-oxopropan-2-yl)oxy)-4-(o-tolyl)isoquinolin-1(2H)-one]", "IC50": 20},
      {"smiles": "Cc1ccccc1-c1c[nH]c(=O)c2cc(O[C@H](C)C(=O)N3CCC[C@H](C(N)=O)C3)ccc12", "note": "[Example 94, (S)-1-((R)-2-((1-oxo-4-(o-tolyl)-1,2-dihydroisoquinolin-7-yl)oxy)propanoyl)piperidine-3-carboxamide]", "IC50": 70},
      {"smiles": "C[C@@H](Oc1ccc2c(-c3ccc(F)cc3Cl)c[nH]c(=O)c2c1)C(=O)N1CC2CC1CN2C", "note": "(stereo partly drawn) [Example 127, 4-(2-chloro-4-fluorophenyl)-7-(((2R)-1-(5-methyl-2,5-diazabicyclo[2.2.1]heptan-2-yl)-1-oxopropan-2-yl)oxy)isoquinolin-1(2H)-one]", "IC50": 2000},
      {"smiles": "C[C@@H](Oc1ccc2c(-c3ccc(F)cc3Cl)c[nH]c(=O)c2c1)C(=O)N1CCCC(S(C)(=O)=O)C1", "note": "(single isomer, unassigned) [Example 96]", "IC50": 2000},
      {"smiles": "Cc1cccc(C)c1-c1c[nH]c(=O)c2cc(OCC#N)ccc12", "note": "[Example 99, 2-((4-(2,6-dimethylphenyl)-1-oxo-1,2-dihydroisoquinolin-7-yl)oxy)acetonitrile]", "IC50": 20},
      {"smiles": "Cc1ccccc1-c1c[nH]c(=O)c2cc(NC(C)C(N)=O)ccc12", "note": "(stereo not drawn) [Example 67, 2-((1-oxo-4-(o-tolyl)-1,2-dihydroisoquinolin-7-yl)amino)propanamide]", "IC50": 12000},
      {"smiles": "C[C@@H](Oc1ccc2c(-c3ccc(F)cc3Cl)c[nH]c(=O)c2c1)C(=O)N1C2CCC1COC2", "note": "[Example 92, 7-(((2R)-1-(3-oxa-8-azabicyclo[3.2.1]octan-8-yl)-1-oxopropan-2-yl)oxy)-4-(2-chloro-4-fluorophenyl)isoquinolin-1(2H)-one]", "IC50": 80},
      {"smiles": "C[C@@H](Oc1ccc2c(-c3ccc(F)cc3Cl)c[nH]c(=O)c2c1)C(=O)N1CC2CCC(C1)O2", "note": "[Example 105, 7-(((2R)-1-(8-oxa-3-azabicyclo[3.2.1]octan-3-yl)-1-oxopropan-2-yl)oxy)-4-(2-chloro-4-fluorophenyl)isoquinolin-1(2H)-one]", "IC50": 200},
      {"smiles": "CC(=O)N1CCN(C(=O)[C@@H](C)Oc2ccc3c(-c4ccc(F)cc4Cl)c[nH]c(=O)c3c2)CC1", "note": "[Example 116, (R)-7-((1-(4-acetylpiperazin-1-yl)-1-oxopropan-2-yl)oxy)-4-(2-chloro-4-fluorophenyl)isoquinolin-1(2H)-one]", "IC50": 500},
      {"smiles": "Cc1ccccc1-c1c[nH]c(=O)c2cc(OCC(C)C)ccc12", "note": "[Example 6, 7-isobutoxy-4-(o-tolyl)isoquinolin-1(2H)-one]", "IC50": 200},
      {"smiles": "Cc1cc(F)cc(C)c1-c1c[nH]c(=O)c2cc(OCC(=O)O)ccc12", "note": "[Example 110, 2-((4-(4-fluoro-2,6-dimethylphenyl)-1-oxo-1,2-dihydroisoquinolin-7-yl)oxy)acetic acid]", "IC50": 25000},
      {"smiles": "C[C@@H](Oc1ccc2c(-c3ccc(F)cc3Cl)c[nH]c(=O)c2c1)C(=O)N1CCN(C)CC1", "note": "[Example 131, (R)-4-(2-chloro-4-fluorophenyl)-7-((1-(4-methylpiperazin-1-yl)-1-oxopropan-2-yl)oxy)isoquinolin-1(2H)-one]", "IC50": 1000},
      {"smiles": "Cc1sccc1-c1c[nH]c(=O)c2cc(OCC(N)=O)ccc12", "note": "[Example 134, 2-((4-(2-methylthiophen-3-yl)-1-oxo-1,2-dihydroisoquinolin-7-yl)oxy)acetamide]", "IC50": 21000},
      {"smiles": "C[C@@H](Oc1ccc2c(-c3ccc(F)cc3Cl)c[nH]c(=O)c2c1)C(=O)N1CCOCC1", "note": "[Example 79, (R)-4-(2-chloro-4-fluorophenyl)-7-((1-morpholino-1-oxopropan-2-yl)oxy)isoquinolin-1(2H)-one]", "IC50": 50},
      {"smiles": "Cc1ccc(-c2c[nH]c(=O)c3cc(OCC#N)ccc23)c(Cl)c1", "note": "[Example 89, 2-((4-(2-chloro-4-methylphenyl)-1-oxo-1,2-dihydroisoquinolin-7-yl)oxy)acetonitrile]", "IC50": 300},
      {"smiles": "CC(=O)N1CC[C@@H](Oc2ccc3c(-c4ccccc4C)c[nH]c(=O)c3c2)C1", "note": "[Example 16, (R)-7-((1-acetylpyrrolidin-3-yl)oxy)-4-(o-tolyl)isoquinolin-1(2H)-one]", "IC50": 51000},
      {"smiles": "COCC(C)Oc1ccc2c(-c3ccccc3C)c[nH]c(=O)c2c1", "note": "(single isomer, unassigned) [Example 27, 7-((1-methoxypropan-2-yl)oxy)-4-(o-tolyl)isoquinolin-1(2H)-one]", "IC50": 1000},
      {"smiles": "Cc1ccccc1-c1c[nH]c(=O)c2cc(C(=O)N(C)C)ccc12", "note": "[Example 23, N,N-dimethyl-1-oxo-4-(o-tolyl)-1,2-dihydroisoquinoline-7-carboxamide]", "IC50": 75000},
      {"smiles": "CC[C@@H](Oc1ccc2c(-c3ccccc3C)c[nH]c(=O)c2c1)C(=O)O", "note": "[Example 126, (R)-2-((1-oxo-4-(o-tolyl)-1,2-dihydroisoquinolin-7-yl)oxy)butanoic acid]", "IC50": 400},
      {"smiles": "CC(=O)NCc1ccc2c(-c3ccccc3C)c[nH]c(=O)c2c1", "note": "[Example 39, N-((1-oxo-4-(o-tolyl)-1,2-dihydroisoquinolin-7-yl)methyl)acetamide]", "IC50": "> 100000"},
      {"smiles": "C[C@@H](Oc1ccc2c(-c3ccc(F)cc3Cl)c[nH]c(=O)c2c1)C(=O)N1CCC[C@H](C#N)C1", "note": "[Example 87, (S)-1-((R)-2-((4-(2-chloro-4-fluorophenyl)-1-oxo-1,2-dihydroisoquinolin-7-yl)oxy)propanoyl)piperidine-3-carbonitrile]", "IC50": 200}
    ]},
    {"molecular_target": "POLRMT (Homo sapiens, UniProt O00411)", "test": "homogeneous TR-FRET assay of mitochondrial transcription (inhibition of POLRMT)", "format": "biochemical", "details": "quinolinone compounds (Table 2)", "method": "as §1, §2, §3, §4, §5, §6, §7, §8, §9", "units": {"IC50": "nM"}, "values": [
      {"smiles": "C[C@@H](Oc1ccc2c(-c3ccc(F)cc3Cl)cc(=O)[nH]c2c1)C(=O)N(C)C", "note": "[Example Q6, (R)-2-((4-(2-chloro-4-fluorophenyl)-2-oxo-1,2-dihydroquinolin-7-yl)oxy)-N,N-dimethylpropanamide]", "IC50": 18000},
      {"smiles": "Cc1ccccc1-c1cc(=O)[nH]c2cc(O[C@H](C)C(=O)N(C)C)ccc12", "note": "(single isomer, unassigned) [Example Q7]", "IC50": 9000},
      {"smiles": "CCC(C)Oc1ccc2c(-c3ccccc3C)cc(=O)[nH]c2c1", "note": "(stereo not drawn) [Example Q11, 7-(sec-butoxy)-4-(o-tolyl)quinolin-2(1H)-one]", "IC50": 3000},
      {"smiles": "CC(C)Oc1ccc2c(-c3ccc(F)cc3Cl)cc(=O)[nH]c2c1", "note": "[Example Q4, 4-(2-chloro-4-fluorophenyl)-7-isopropoxyquinolin-2(1H)-one]", "IC50": 23000},
      {"smiles": "Cc1ccccc1-c1cc(=O)[nH]c2cc(O[C@H](C)C(=O)N3CCC(C(=O)O)CC3)ccc12", "note": "[Example Q14, (R)-1-(2-((2-oxo-4-(o-tolyl)-1,2-dihydroquinolin-7-yl)oxy)propanoyl)piperidine-4-carboxylic acid]", "IC50": 7000}
    ]}
  ]
}
